Experimental data from patent US11524938B2, “Aromatic sulfonamide derivatives” (Bayer Pharma Aktiengesellschaft, priority 2016, dated 2022).

Target: T1, human P2X4 (Homo sapiens, UniProt Q99571)
T1 sequence (Q99571 1-388): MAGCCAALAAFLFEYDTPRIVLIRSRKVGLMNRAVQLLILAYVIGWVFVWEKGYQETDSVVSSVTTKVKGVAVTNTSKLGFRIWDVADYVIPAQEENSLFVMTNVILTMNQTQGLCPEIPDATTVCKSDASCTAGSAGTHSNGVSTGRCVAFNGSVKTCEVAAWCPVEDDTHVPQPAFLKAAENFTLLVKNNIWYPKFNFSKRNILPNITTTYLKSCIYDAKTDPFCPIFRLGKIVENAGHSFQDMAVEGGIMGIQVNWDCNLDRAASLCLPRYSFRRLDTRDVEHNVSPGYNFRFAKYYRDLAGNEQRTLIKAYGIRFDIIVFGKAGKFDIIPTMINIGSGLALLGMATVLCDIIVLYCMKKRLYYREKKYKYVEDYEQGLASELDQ
Assay: Human P2X4 HEK Cell FLIPR Assay
Type: cell-based
Details: agonist Bz-ATP at EC80; for Emax: HEK293, HEK293 cells, percentage of maximal inhibition, read-out: Human P2X4 HEK Cells (FLIPR Assay) avg Efficacy [%]; for IC50: HEK293 cells, individual values listed where some fall outside detection range
Summary of the method: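 HEK293 cells stably expressing human P2X4, Fluo8-AM loaded 30 min at 37° C, then compound 30 min at room temperature (0.5% DMSO, pH 7.4 buffer with 1.8 mM CaCl2). Bz-ATP at its daily-determined EC80 added; calcium fluorescence read over 120 sec; IC50 from peak RFU normalized to agonist control, triplicates.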

Emax	IC50	SMILES
86%	362 nM	NS(=O)(=O)c1cc(NC(=O)Cc2ccccc2Cl)ccc1-c1cnc(OC2CCC2)nc1 [Example 316, 2-(2-Chlorophenyl)-N-{4-[2-(cyclobutyloxy)pyrimidin-5-yl]-3-sulfamoylphenyl}acetamide]
68%	1210 nM	Cc1nc(Cl)ncc1-c1ccc(NC(=O)Cc2ccccc2Cl)cc1S(N)(=O)=O [Example 317, N-[4-(2-Chloro-4-methylpyrimidin-5-yl)-3-sulfamoylphenyl]-2-(2-chlorophenyl)acetamide]
43%	> 25000 nM	NS(=O)(=O)c1cc(NC(=O)Cc2ccccc2Cl)ccc1-c1cc(C(F)(F)F)ccn1 [Example 318, 2-(2-Chlorophenyl)-N-{3-sulfamoyl-4-[4-(trifluoromethyl)pyridin-2-yl]phenyl}acetamide]
73%	7280 nM	NS(=O)(=O)c1cc(NC(=O)Cc2ccccc2Cl)ccc1-c1ccc(Cl)cn1 [Example 319, 2-(2-Chlorophenyl)-N-[4-(5-chloropyridin-2-yl)-3-sulfamoylphenyl]acetamide]
51%	> 25000 nM	Cc1nc(-c2ccc(NC(=O)Cc3ccccc3Cl)cc2S(N)(=O)=O)cn1C [Example 320, 2-(2-Chlorophenyl)-N-[4-(1,2-dimethyl-1H-imidazol-4-yl)-3-sulfamoylphenyl]acetamide]
81%	186 nM	NS(=O)(=O)c1cc(NC(=O)Cc2ccccc2Cl)ccc1-c1cncc(N2CCCC2)c1 [Example 322, 2-(2-Chlorophenyl)-N-{4-[5-(pyrrolidin-1-yl)pyridin-3-yl]-3-sulfamoylphenyl}acetamide]
81%	2580 nM	NS(=O)(=O)c1cc(NC(=O)C(O)c2ccccc2Cl)ccc1-c1cnn(C2CC2)c1 (stereo not shown) [Example 323, 2-(2-Chlorophenyl)-N-[4-(1-cyclopropyl-1H-pyrazol-4-yl)-3-sulfamoylphenyl]-2-hydroxyethanamide]
59%	3050 nM	NS(=O)(=O)c1cc(NC(=O)C(O)c2ccccc2Cl)ccc1-c1cnn(C(F)F)c1 (stereo not shown) [Example 324, 2-(2-Chlorophenyl)-N-{4-[1-(difluoromethyl)-1H-pyrazol-4-yl]-3-sulfamoylphenyl}-2-hydroxyethanamide]
94%	9 nM	NS(=O)(=O)c1cc(NC(=O)Cc2ccccc2Cl)ccc1-c1cncc(Cl)c1 [Example 325, 2-(2-Chlorophenyl)-N-[4-(5-chloropyridin-3-yl)-3-sulfamoylphenyl]acetamide]
94%	11 nM	NS(=O)(=O)c1cc(NC(=O)Cc2ccccc2Cl)ccc1-c1cncc(F)c1 [Example 327, 2-(2-Chlorophenyl)-N-[4-(5-fluoropyridin-3-yl)-3-sulfamoylphenyl]acetamide]
94%	12 nM	CC(C)Cn1cc(-c2ccc(NC(=O)Cc3ccccc3Cl)cc2S(N)(=O)=O)cn1 [Example 328, 2-(2-Chlorophenyl)-N-{4-[1-(2-methylpropyl)-1H-pyrazol-4-yl]-3-sulfamoylphenyl}acetamide]
100%	13 nM	NS(=O)(=O)c1cc(NC(=O)Cc2ccccc2Cl)ccc1-c1cnn(C2CCCC2)c1 [Example 329, 2-(2-Chlorophenyl)-N-[4-(1-cyclopentyl-1H-pyrazol-4-yl)-3-sulfamoylphenyl]acetamide]
101%	14 nM	CC(C)Oc1cccc(-c2ccc(NC(=O)Cc3ccccc3Cl)cc2S(N)(=O)=O)c1F [Example 330, 2-(2-Chlorophenyl)-N-[2′-fluoro-3′-(propan-2-yloxy)-2-sulfamoylbiphenyl-4-yl]-acetamide]
66%		NS(=O)(=O)c1cc(NC(=O)Cc2ccccc2Cl)ccc1-c1cncc(C(F)(F)F)c1 [Example 331, 2-(2-Chlorophenyl)-N-{3-sulfamoyl-4-[5-(trifluoromethyl)pyridin-3-yl]phenyl}-acetamide]
89%	326 nM	COc1cc(-c2ccc(NC(=O)Cc3ccccc3Cl)cc2S(N)(=O)=O)cnc1Cl [Example 332, N-[4-(6-Chloro-5-methoxypyridin-3-yl)-3-sulfamoylphenyl]-2-(2-chlorophenyl)-acetamide]
101%	15 nM	NS(=O)(=O)c1cc(NC(=O)Cc2c(F)cccc2Cl)ccc1-c1cnn(C2CC2)c1 [Example 333, 2-(2-Chloro-6-fluorophenyl)-N-[4-(1-cyclopropyl-1H-pyrazol-4-yl)-3-sulfamoylphenyl]acetamide]
98%	18 nM	Cn1cc(-c2ccc(NC(=O)Cc3cccc(F)c3Cl)cc2S(N)(=O)=O)cn1 [Example 334, 2-(2-Chloro-3-fluorophenyl)-N-[4-(1-methyl-1H-pyrazol-4-yl)-3-sulfamoylphenyl]-acetamide]

Emax	IC50	SMILES
98%	20 nM	CC(C)(C)n1cc(-c2ccc(NC(=O)Cc3ccccc3Cl)cc2S(N)(=O)=O)cn1 [Example 335, N-[4-(1-tert-Butyl-1H-pyrazol-4-yl)-3-sulfamoylphenyl]-2-(2-chlorophenyl)acetamide]
109%	28 nM	CC(C)Oc1ncccc1-c1ccc(NC(=O)Cc2ccccc2Cl)cc1S(N)(=O)=O [Example 336, 2-(2-Chlorophenyl)-N-{4-[2-(propan-2-yloxy)pyridin-3-yl]-3-sulfamoylphenyl}acetamide]
96%	30 nM	NS(=O)(=O)c1cc(NC(=O)Cc2cccc(F)c2Cl)ccc1-c1cnn(C2CC2)c1 [Example 337, 2-(2-Chloro-3-fluorophenyl)-N-[4-(1-cyclopropyl-1H-pyrazol-4-yl)-3-sulfamoylphenyl]acetamide]
91%	32 nM	NS(=O)(=O)c1cc(NC(=O)Cc2ccccc2F)ccc1-c1cccnc1 [Example 338, 2-(2-Fluorophenyl)-N-[4-(pyridin-3-yl)-3-sulfamoylphenyl]acetamide]
92%	33 nM	Cn1cc(-c2ccc(NC(=O)Cc3c(F)cccc3Cl)cc2S(N)(=O)=O)cn1 [Example 339, 2-(2-Chloro-6-fluorophenyl)-N-[4-(1-methyl-1H-pyrazol-4-yl)-3-sulfamoylphenyl]-acetamide]
89%	34 nM	CC(C)(O)c1cc(F)cc(-c2ccc(NC(=O)Cc3ccccc3Cl)cc2S(N)(=O)=O)c1 [Example 340, 2-(2-Chlorophenyl)-N-[3′-fluoro-5′-(2-hydroxypropan-2-yl)-2-sulfamoylbiphenyl-4-yl]acetamide]
86%	41 nM	COc1cncc(-c2ccc(NC(=O)Cc3ccccc3Cl)cc2S(N)(=O)=O)c1 [Example 341, 2-(2-Chlorophenyl)-N-[4-(5-methoxypyridin-3-yl)-3-sulfamoylphenyl]acetamide]
101%	41 nM	CC(C)(O)c1cccc(-c2ccc(NC(=O)Cc3ccccc3Cl)cc2S(N)(=O)=O)c1 [Example 342, 2-(2-Chlorophenyl)-N-[3′-(2-hydroxypropan-2-yl)-2-sulfamoylbiphenyl-4-yl]acetamide]
101%	42 nM	CC(C)n1cc(-c2ccc(NC(=O)Cc3ccccc3F)cc2S(N)(=O)=O)cn1 [Example 343, 2-(2-Fluorophenyl)-N-{4-[1-(propan-2-yl)-1H-pyrazol-4-yl]-3-sulfamoylphenyl}-acetamide]
102%	44 nM	NS(=O)(=O)c1cc(NC(=O)Cc2ccccc2F)ccc1-c1cnn(C2CC2)c1 [Example 344, N-[4-(1-Cyclopropyl-1H-pyrazol-4-yl)-3-sulfamoylphenyl]-2-(2-fluorophenyl)-acetamide]
93%	46 nM	NS(=O)(=O)c1cc(NC(=O)Cc2ccccc2Cl)ccc1-c1cnn(C2CCCCO2)c1 (stereo not shown) [Example 345, 2-(2-Chlorophenyl)-N-{3-sulfamoyl-4-[1-(tetrahydro-2H-pyran-2-yl)-1H-pyrazol-4-yl]phenyl}acetamide]
105%	46 nM	CC(C)(C)n1cc(-c2ccc(NC(=O)Cc3ccccc3F)cc2S(N)(=O)=O)cn1 [Example 346, N-[4-(1-tert-Butyl-1H-pyrazol-4-yl)-3-sulfamoylphenyl]-2-(2-fluorophenyl)acetamide]
89%	85 nM	CC(C)(O)c1cc(F)cc(-c2ccc(NC(=O)Cc3ccccc3F)cc2S(N)(=O)=O)c1 [Example 347, N-[3′-Fluoro-5′-(2-hydroxypropan-2-yl)-2-sulfamoylbiphenyl-4-yl]-2-(2-fluorophenyl)acetamide]
96%	47 nM	NS(=O)(=O)c1cc(NC(=O)Cc2ccccc2F)ccc1-c1cnn(C2CCCC2)c1 [Example 348, N-[4-(1-Cyclopentyl-1H-pyrazol-4-yl)-3-sulfamoylphenyl]-2-(2-fluorophenyl)-acetamide]
99%		NS(=O)(=O)c1cc(NC(=O)Cc2ccccc2Cl)ccc1-c1cnn(C2CC2)c1 [Example 349, 2-(2-Chlorophenyl)-N-[4-(1-cyclopropyl-1H-pyrazol-4-yl)-3-sulfamoylphenyl]acetamide]
87%	49 nM	COCCn1cc(-c2ccc(NC(=O)Cc3c(F)cccc3Cl)cc2S(N)(=O)=O)cn1 [Example 350, 2-(2-Chloro-6-fluorophenyl)-N-{4-[1-(2-methoxyethyl)-1H-pyrazol-4-yl]-3-sulfamoylphenyl}acetamide]
